Patent US10052333B2, “Methods and systems for the delivery of a therapeutic agent” (HANANJA EHF, priority 2007, dated 2018)

Experiments:
[1] = Intranasal versus intravenous pharmacokinetics in New Zealand White rabbits; conditions: 5 mg/mL in mPEG 350, 50 μL into each nasal cavity
Protocol: In this Example, 10 mg lorazepam is dissolved in 2 mL of mPEG 350 using ultrasound to obtain a solution containing 5 mg/mL of lorazepam. 50 μL of the resulting composition is administered into each nasal cavity of male New Zealand White rabbits held in a supine position during, and then one minute after application. An Eppendorf pipette is used for each application. After administration, blood samples then are harvested from a marginal ear vein at 0, 2, 5, 10, 15, 30 and 60 minutes, and the lorazepam concentration determined by high performance liquid chromatography (HPLC). The pharmacokinetics of lorazepam delivery via intranasal administration can then be compared with the pharmacokinetics of lorazepam delivery by intravenous administration.
In this Example, 10 mg of midazolam is dissolved in 2 mL of mPEG 350 using ultrasound to obtain a solution containing 5 mg/mL midazolam. 50 μL of the resulting composition is then administered into each nasal cavity of male New Zealand White rabbits, held in a supine position during, and then one minute after application. After administration, blood samples then are harvested from a marginal ear vein at 0, 2, 5, 10, 15, 30 and 60 minutes, and the midazolam concentration determined by HPLC. […]

[2] = Viscosity of formulation components; assay type: physicochemical; conditions: neat component as listed in formulation tables
[3] = nasal gel, carbopol in PEG 400, rats; cited from earlier work
[4] = after nasal administration, adults; cited from earlier work

| Compound | Pharmacokinetics of intranasal versus intravenous administration [1] | Viscosity (cP) of component [2] [cP] | also measured |
| --- | --- | --- | --- |
| Cc1ncc2n1-c1ccc(Cl)cc1C(c1ccccc1F)=NC2 [midazolam] | comparable to those of the intravenously administered midazolam |  |  |
| CC(O)CO (stereo not drawn) [Propylene glycol] |  | 40 |  |
| O [Water] |  | 1 |  |
| COC(=O)C1=C(C)NC(C)=C(C(=O)OC)C1c1ccccc1[N+](=O)[O-] [nifedipine] |  |  | Time to peak plasma concentration [3]: 30 min |
| O=C1Nc2ccc(Cl)cc2C(c2ccccc2Cl)=NC1O (stereo not drawn) [lorazepam] | comparable to those of the intravenously administered lorazepam |  | Time to peak concentration [4]: 2.3 h |
